Entries after “also recorded” stand apart in the source; their conditions may differ. Where a SMILES comes first, the peptide text is derived from it.
Legend:
fmr1 knockout mice = experiment: Open field test, fmr1 knockout mice; type: in vivo, mouse; details: 100 mg/kg i.p. 28 days
Procedure: 1. fmr1 KO+Vehicle (saline) 2. Wt+Vehicle (saline) 3. fmr1 KO+G-2-MePE (100 mg/kg in saline) 4. Wt+G-2-MePE (100 mg/kg in saline).
G-2-MePE was administered at the dose of 100 mg/kg i.p. in 0.1 ml saline, once daily for 28 days. Vehicle-treated animals were injected with 0.1 ml saline daily for 28 days. Thereafter, drug or vehicle treatments were stopped and animals were tested on successive days until all tests were completed. Finally, the animals were sacrificed for determining expression of pAkt and pERK
The open field is a grey PVC enclosed arena 50×30 cm divided into 10 cm squares. Mice were brought to the experimental room 5-20 min before testing. A mouse was placed into a corner square facing the corner and observed for 3 min. The number of squares entered (whole body) and rears (both front paws off the ground, but not as part of grooming) were counted. The latency to the first rearing (rear) was also noted. The movement of the mouse around the field was recorded with a video tracking device for 300 s (vNT4.0, Viewpoint). The latency for the mouse to enter the brightest, central part of the field total time spent in this central region, and total activity (in terms of path length in centimeters), were recorded in each trial, the initial exposure, 10 min after the initial exposure and 24 h after the initial exposure.
During exposure to the open field chamber mice habituated to the environment and thus explored less, decreasing the amount movement shown over time. Movement and rearing were recorded during the 3 exposures. Failures to reduce locomotion or rearing at 10 minutes and 24 hours indicated deficits in short and long term memory, respectively.

MeCP2 deficient mice = experiment: Seizure activity, electroencephalographic recordings (Example 12); details: mouse, in vivo
Source text: Electroencephalograpic recordings of wild-type mice and MeCP2 deficient mice treated with either saline or G-2-MePE are obtained using methods described in U.S. Pat. No. 7,714,020.

[1] = tested on: subjects with an Autism Spectrum Disorder; experiment: Placebo-controlled crossover study in subjects with Autism Spectrum Disorder (Example 16); type: in vivo, human
Source text: To determine whether G-2-MePE can treat symptoms of ASD, we carry out a study in human beings with ASD. Twenty subjects with an Autism Spectrum Disorder are recruited. Subjects are male and aged between 16 and 65 years (Mean=18.1 SD=3.4). All subjects have an IQ>60 and strict DSM-IV-TR diagnosis of Autistic Disorder or Asperger Disorder. Subjects also meet criteria for an Autism Spectrum Disorder according the ADI-R and ADOS-G instruments, and fulfill the proposed DSM-V criteria for and Autism Spectrum Disorder. Subjects are instructed that concomitant medications are to be stable for at least six weeks prior to study. Subjects receiving medication to treat signs of inattention are tested in the morning and instructed to take their medication in the afternoon. Subjects better treated with atypical anti-psychotic medications indicated for autism are excluded. Subjects are screened for known genetic disorders including and those with Fragile X Syndrome or tuberous sclerosis excluded. Subjects with uncontrolled epilepsy are excluded. The study is a double blind placebo-controlled crossover study with three phases. Subjects enter each phase of the crossover in a randomized order. In the test phases, subjects receive either placebo, 10 mg/kg T.I.D oral G-2-MePE for five days, or 30 mg/kg T.I.D. oral G-2-MePE. Each phase of the crossover is separated by a washout period of fourteen days. Subjects are tested at baseline using the following instruments: Wechsler IQ, Abberant Behavior Checklist Community Edition (ABC), […], Yale-Brown Obsessive Compulsive Scale (YBOCS) compulsion subscale, Social Responsiveness Scale (SRS), Clinical Global Impression of Severity (CGI-S) and their […] complete the Caregiver Strain Questionnaire (CSQ). Subjects are administered two tasks-the Reading the Mind in the Eyes Test-Revised (RMET) and an Eye Tracking (ET) task, as well as Clinical Global Impression of Improvement (CGI-I). Tasks commence two hours following administration of placebo or either dose of G-2-MePE. The RMET is a computer based task that assesses one's ability to read emotions from the eyes of subtle affective facial expressions and is a widely used test of emotion recognition in patients with autism (2001). Importantly, the RMET is capable of detecting improvement with even a single dose of a pharmacological agent (Guastella et al., 2010). Eye tracking issues are characteristic of patients with autism who spend less time looking at the eyes of photographs of human faces. Again, a single administration of a pharmacologic intervention can ameliorate eye tracking deficits in autism ([…] et al, 2010). Adverse events are also recorded using standard safety measures. Statistically, the effect of treatment with G-2-MePE is analysed by conducting a repeated analysis of covariance (ANCOVA) on the effect of treatment on change from baseline scores.

In the case of `C[C@@]1(C(=O)N[C@@H](CCC(=O)O)C(=O)O)CCCN1C(=O)CN` [Example G-2-MePE, Glycyl-L-2-methylprolyl-L-glutamic acid] (HELM PEPTIDE1{G.[C[C@@]1(C(=O)[*:2])CCCN1[*:1]].E}$$$$V2.0), the rearing activity (fmr1 knockout mice; fmr1 KO mice) is reported as “significantly reduced rearing activity”, the “movement in the open field” value (fmr1 knockout mice; fmr1 knockout mice, 2nd and 3rd trials) is reported as “significantly reduce movement” and the rearing activity (fmr1 knockout mice; wild-type mice) is reported as “no effect”. For the same compound, the “motor seizures and non-convulsive seizures” value (MeCP2 deficient mice) was “effective in decreasing both motor seizures and non-convulsive seizures”, the “percent correct responses on the RMET” value ([1]; 30 mg/kg T.I.D. oral) was “increases the percent correct responses” and the “Serious Adverse Events” value ([1]; 10 or 30 mg/kg T.I.D. oral) was “No Serious Adverse Events”. The “adverse events / tolerability” value ([1]; 10 or 30 mg/kg T.I.D. oral) was “no more adverse events than were present during treatment with placebo; also recorded: well tolerated”, the “performance of the RMET test, overall” value ([1]; human, in vivo) was “significant overall improvement” and the “time spent looking at the eye region in the ET test” value ([1]; human, in vivo) was “significant overall improvement”.

From patent publication US20150224164A1, “TREATMENT OF AUTISM SPECTRUM DISORDERS USING GLYCYL-L-2-METHYLPROLYL-L-GLUMATIC ACID” (Neuren Pharmaceuticals Limited, priority 2013, published 2015)
